# Tested on: IKZF1, ASS1 and SALL4 recruitment to CRBN
# Assay: Recruitment assessment: recruitment of any tested substrate from among IKZF1, ASS1 and SALL4
# Assay type: cell-based
# Conditions: any tested substrate at any tested compound concentration
# Protocol: In this experimental set-up, cells were transfected with a construct encoding a CRBN-fusion protein and another one encoding a substrate-fusion protein. Test compound activity was assessed with increasing concentrations of test compounds (dose-response studies) to monitor the ability to promote CRBN-ligand-induced protein interaction.
# Full size proteins were fused for each of the target proteins tested, except in the case of IKZF1 where isoform 7 was used. For the study, the following were used: IKZF1 recruitment: pSEL-CRBN+pMG1-IKZF1(isoform 7); ASS1 recruitment: pSEL-CRBN+pMG1-ASS1. SALL4 recruitment: pSEL-SALL4+pMG1-CRBN. […] Luciferase activity was measured 24 hours after test compound treatment using the Luciferase Assay System kit (PROMEGA, Madison, Wis.) with an Ensight plate reader (PERKIN ELMER LIFE SCIENCES, Waltham, Mass.). Data points depicted fold induction of the average luciferase activity of triplicate samples from EPO+test compound treated cells versus EPO only treated cells. Error bars represent standard deviations. Curves were fit using 4-parameter nonlinear regression in […] PRISM software.
row,Compound,Recruitment Assessment
1,O=C1N=c2ccc(NC(=O)NCc3ccccc3)cc2=N1 [1-benzyl-3-(2-oxobenzimidazol-5-yl)urea],FALSE
2,"O=C1CCC(N2Cc3ccccc3C2=O)C(=O)N1 (single isomer, unassigned) [5′-OH-THL, 3-(1-oxoisoindolin-2-yl)piperidine-2,6-dione, reference compound]",FALSE
3,"Cc1cccc2c1C(=O)N(C1CCC(=O)NC1=O)C2 (stereo not shown) [C28661, 3-(7-methyl-1-oxo-isoindolin-2-yl)piperidine-2,6-dione]",FALSE
4,"CC(=O)Nc1cccc2c1C(=O)N(C1CCC(=O)NC1=O)C2 (stereo not shown) [C29457, N-[2-(2,6-dioxo-3-piperidyl)-3-oxo-isoindolin-4-yl]acetamide]",TRUE
5,"O=C1CCC(N2C(=O)c3ccccc3C2=O)C(=O)N1 (stereo not shown) [THL, Thalidomide, reference compound]",TRUE
6,"Nc1cccc2c(=O)n(C3CCC(=O)NC3=O)nnc12 (stereo not shown) [C35833, 3-(8-amino-4-oxo-1,2,3-benzotriazin-3-yl)piperidine-2,6-dione]",FALSE
7,"O=C1CCc2cc(C(=O)N3CCc4cccnc43)cnc2N1 [C36128, 6-(2,3-dihydropyrrolo[2,3-b]pyridine-1-carbonyl)-3,4-dihydro-1H-1,8-naphthyridin-2-one]",FALSE
8,"Cc1cccc2c1C(=O)N(C1CCC(=O)NC1=O)S2(=O)=O (stereo not shown) [C73349, 3-(4-methyl-1,1,3-trioxo-1,2-benzothiazol-2-yl)piperidine-2,6-dione]",FALSE
9,"O=C1CCc2cc(C(=O)N3CCCc4ccccc43)cnc2N1 [C36126, 6-(3,4-dihydro-2H-quinoline-1-carbonyl)-3,4-dihydro-1H-1,8-naphthyridin-2-one]",FALSE
10,"O=C1CCC(N2C(=O)CC(NC(=O)OCc3ccccc3)C2=O)C(=O)N1 (stereo not shown) [C64344, benzyl N-[1-(2,6-dioxo-3-piperidyl)-2,5-dioxo-pyrrolidin-3-yl]carbamate]",FALSE
11,"O=C1CCC(Nc2cnc3ccccc3n2)C(=O)N1 (stereo not shown) [C44292, 3-(quinoxalin-2-ylamino)piperidine-2,6-dione]",FALSE
12,"Nc1nccc(Nc2ccc3c(c2)CN(C2CCC(=O)NC2=O)C3=O)n1 (stereo not shown) [C80375, 3-[5-[(2-aminopyrimidm-4-yl)amino]-1-oxo-isoindolin-2-yl] piperidine-2,6-dione]",FALSE
13,"CC1CCN(C(=O)CNc2ccc3c(c2)C(=O)N(C2CCC(=O)NC2=O)C3)CC1 (stereo not shown) [C12582, 3-[6-[[2-(4-methyl-1-piperidyl)-2-oxo-ethyl]amino]-1-oxo-isoindolin-2-yl]piperidine-2,6-dione]",FALSE
14,"O=C1CCC(N2Cc3ccc(N4CCNC4=O)cc3C2=O)C(=O)N1 (stereo not shown) [C84971, 3-[1-oxo-6-(2-oxoimidazolidin-1-yl)isoindolin-2-yl]piperidine-2,6-dione]",FALSE
15,"COc1cnccc1C(=O)Nc1ccc2c(c1)=NC(=O)N=2 [C36124, 3-methoxy-N-(2-oxobenzimidazol-5-yl)pyridine-4-carboxamide]",FALSE
16,"O=C1CCC(N2C(=O)c3ccccc3C2OC2CCCCC2)C(=O)N1 (stereo not shown) [3-[1-(cyclohexoxy)-3-oxo-isoindolin-2-yl]piperidine-2,6-dione]",FALSE
17,"NCc1ccc2c(c1)C(=O)N(C1CCC(=O)NC1=O)C2 (stereo not shown) [C66979, 3-[6-(aminomethyl)-1-oxo-isoindolin-2-yl]piperidine-2,6-dione]",FALSE
18,"CNC(=O)Nc1cccc2c1CN(C1CCC(=O)NC1=O)C2=O (stereo not shown) [C22594, 1-[2-(2,6-dioxo-3-piperidyl)-1-oxo-isoindolin-4-yl]-3-methyl-urea]",TRUE
19,"O=C1CCC(N2C(=O)CCC2=O)C(=O)N1 (stereo not shown) [C14950, 3-(2,5-dioxopyrrolidin-1-yl)piperidine-2,6-dione]",FALSE
20,"CN(C)c1ccc2c(c1)C(=O)N(C1CCC(=O)NC1=O)C2 (stereo not shown) [C96622, 3-[6-(dimethylamino)-1-oxo-isoindolin-2-yl]piperidine-2,6-dione]",FALSE

row,Compound,Recruitment Assessment
1,"Cc1cc(Nc2ccc3c(c2)C(=O)N(C2CCC(=O)NC2=O)C3)ncn1 (stereo not shown) [C80384, 3-[6-[(6-methylpyrimidin-4-yl)amino]-1-oxo-isoindolin-2-yl] piperidine-2,6-dione]",FALSE
2,"O=C1c2c(F)c(F)c(F)c(F)c2C(=O)N1c1ccc(F)cc1F [C34491, 2-(2,4-difluorophenyl)-4,5,6,7-tetrafluoro-isoindoline-1,3-dione]",FALSE
3,"O=C1CCC(N2Cc3ccc(NC(=O)C4=C5C=CN=C5N=CC4)cc3C2=O)C(=O)N1 (stereo not shown) [C80395, N-[2-(2,6-dioxo-3-piperidyl)-3-oxo-isoindolin-5-yl]-5H-pyrrolo [2,3-b]pyridine-4-carboxamide]",TRUE
4,"CC1CCCN(C(=O)CNc2ccc3c(c2)C(=O)N(C2CCC(=O)NC2=O)C3)CC1 (stereo not shown) [C12697, 3-[6-[[2-(4-methylazepan-1-yl)-2-oxo-ethyl]amino]-1-oxo-isoindolin-2-yl]piperidine-2,6-dione]",FALSE
5,"Cc1cc2[nH]cnc(Nc3ccc4c(c3)C(=O)N(C3CCC(=O)NC3=O)C4)c-2n1 (stereo not shown) [C80390, 3-[6-[(6-methylpyrrolo[3,2-d]pyrimidin-4-yl)ammo]-1-oxo-isoindolin-2-yl]piperidine-2,6-dione]",TRUE
6,"O=C1CCC(N2Cc3ccc(NCC(=O)N4CCc5ccccc5C4)cc3C2=O)C(=O)N1 (stereo not shown) [C95329, 3-[6-[[2-(3,4-dihydro-1H-isoquinolin-2-yl)-2-oxo-ethyl]amino]-1-oxo-isoindolin-2-yl]piperidine-2,6-]",FALSE
7,"NC(=O)c1ccc2c(c1)C(=O)N(C1CCC(=O)NC1=O)C2 (stereo not shown) [C39772, 2-(2,6-dioxo-3-piperidyl)-3-oxo-isoindoline-5-carboxamide]",FALSE
8,"CC(=O)O.O=C1CCC(N2Cc3ccc(Nc4ncnc5ccccc45)cc3C2=O)C(=O)N1 (stereo not shown) [C80382 acetic acid salt, acetic acid; 3-[1-oxo-6-(quinazolin-4-ylamino)isoindolin-2-yl]piperidine-2,6-dione]",FALSE
9,"O=C1CCC(N2Cc3cccc([N+](=O)[O-])c3C2=O)C(=O)N1 (stereo not shown) [C99884, 3-(7-nitro-1-oxo-isoindolin-2-yl)piperidine-2,6-dione]",FALSE
10,"C=CCC1c2ccccc2C(=O)N1C1CCC(=O)NC1=O (stereo not shown) [C96413, 3-(1-allyl-3-oxo-isoindolin-2-yl)piperidine-2,6-dione]",FALSE
11,"O=C1CCC(N2C(=O)c3ccccc3C2C2=c3ccccc3=NC2)C(=O)N1 (stereo not shown) [C49713, 3-[1-(2H-indol-3-yl)-3-oxo-isoindolin-2-yl]piperidine-2,6-dione]",FALSE
12,"O=C1CCC(N2Cc3cc(Nc4ncnc5sccc45)ccc3C2=O)C(=O)N1 (stereo not shown) [C80370, 3-[1-oxo-5-(thieno[2,3-d]pyrimidin-4-ylamino)isoindolin-2-yl] piperidine-2,6-dione]",FALSE
13,"O=C(O)CNc1cccc2c1CN(C1CCC(=O)NC1=O)C2=O (stereo not shown) [2-[[2-(2,6-dioxo-3-piperidyl)-1-oxo-isoindolin-4-yl]amino]acetic acid]",FALSE
14,"O=C1CCC(N2Cc3cccc(-c4ccccc4)c3C2=O)C(=O)N1 (stereo not shown) [C48020, 3-(1-oxo-7-phenyl-isoindolin-2-yl)piperidine-2,6-dione]",FALSE
15,"CC1CC(NC(=O)CNc2ccc3c(c2)C(=O)N(C2CCC(=O)NC2=O)C3)CCO1 (stereo not shown) [C12695, 2-[[2-(2,6-dioxo-3-piperidyl)-3-oxo-isoindolin-5-yl]amino]-N-(2-methyltetrahydropyran-4-yl)acetamide]",FALSE
16,CN(Cc1cnn(C)c1)C(=O)CNc1ccc2c(c1)C(=O)N(C1CCC(=O)NC1=O)C2 (stereo not shown) [C95333],FALSE
17,"Cn1ccnc(Nc2ccc3c(c2)C(=O)N(C2CCC(=O)NC2=O)C3)c1=O (stereo not shown) [C80387, 3-[6-[(4-methyl-3-oxo-pyrazin-2-yl)amino]-1-oxo-isoindolin-2-yl] piperidine-2,6-dione]",FALSE
18,"Nc1cccc2c1C(=O)N(C1CCC(=O)NC1=O)C2=O (stereo not shown) [POM, 4-amino-2-(2,6-dioxo-3-piperidyl)isoindoline-1,3-dione, reference compound]",TRUE
19,"Cn1ncc2c(Nc3ccc4c(c3)C(=O)N(C3CCC(=O)NC3=O)C4)ncnc21 (stereo not shown) [C80383, 3-[6-[(1-methylpyrazolo[3,4-d]pyrimidin-4-yl)amino]-1-oxo-isoindolin-2-yl]piperidine-2,6-dione]",FALSE
20,"O=C1CCC(N2Cc3ccc(NCC(=O)N4CC5CC4CO5)cc3C2=O)C(=O)N1 (stereo not shown) [C12589, 3-[6-[[2-(2-oxa-5-azabicyclo[2.1.1]heptan-5-yl)-2-oxo-ethyl]amino]-1-oxo-isoindolin-2-yl]piperidine]",FALSE

# Reference: patent US20230111853A1, “COMPOUNDS MODULATING PROTEIN RECRUITMENT AND/OR DEGRADATION” (Orionis Biosciences, Inc., priority 2019, published 2023)
